Results: PubChem BioAssay AID1918952 (Molecular Pharmacology Branch, DTP, NCI, 2023)

Test system: LG0703-F948-PDC complex spheroid viability
Assay: Anticancer human tumor LG0703-F948-PDC patient-derived lung adenocarcinoma cell line growth inhibition
Settings: for IC50: curve of first compound; for viability, T/C: stronger effect = lower value
Outline: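 Multicellular complex spheroids of tumor cells with human endothelial cells (HUVEC) and mesenchymal stem cells; the LSD1 inhibitor iadademstat was combined with standard-of-care or investigational agents. Top concentration at or near clinical Cmax, half-log dilutions; final DMSO ≤0.25%.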

[1] = second compound 0.1 µM, first compound 0.00316 µM
[2] = second compound 0.1 µM, first compound 0.01 µM
[3] = second compound 0.1 µM, first compound 0.0316 µM
[4] = second compound 0.1 µM, first compound 0.1 µM
[5] = second compound 0.316 µM, first compound 0.00316 µM
[6] = second compound 0.316 µM, first compound 0.01 µM
[7] = second compound 0.316 µM, first compound 0.0316 µM
[8] = second compound 0.316 µM, first compound 0.1 µM
[9] = second compound 1 µM, first compound 0.00316 µM
[10] = second compound 1 µM, first compound 0.01 µM
[11] = second compound 1 µM, first compound 0.0316 µM
[12] = second compound 1 µM, first compound 0.1 µM
[13] = second compound 3.16 µM, first compound 0.00316 µM
[14] = second compound 3.16 µM, first compound 0.01 µM
[15] = second compound 3.16 µM, first compound 0.0316 µM
[16] = second compound 3.16 µM, first compound 0.1 µM
[17] = second compound 10 µM, first compound 0.00316 µM
[18] = second compound 10 µM, first compound 0.01 µM
[19] = second compound 10 µM, first compound 0.0316 µM
[20] = second compound 10 µM, first compound 0.1 µM
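Note: spheroids exposed to agents for seven days before readout.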
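Throughout, for viability, T/C: 100% = DMSO vehicle control wells as normalization base.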

Q: Which IC50 (second compound 0.1 µM) does the source give for `O=C(C=Cc1cccc(S(=O)(=O)Nc2ccccc2)c1)NO` + NC1CCC(NC2CC2c2ccccc2)CC1 here?
A: Its IC50 is 78.2 nM.

Q: What about the IC50 (second compound 0.316 µM) of the same compound?
A: Its IC50 is 83.5 nM.

Q: What about the IC50 (second compound 1 µM) of the same compound?
A: Its IC50 is 83.2 nM.

Q: And the IC50 (second compound 3.16 µM)?
A: The IC50 was 77.8 nM.

Q: What about the IC50 (second compound 10 µM) of the same compound?
A: Its IC50 is 57.6 nM.

Q: What about the viability, T/C (second compound 0.1 µM, first compound 0.00949 µM) of the same compound?
A: Its viability, T/C is 103%.

Q: What about the viability, T/C (second compound 0.1 µM, first compound 0.03 µM) of the same compound?
A: The viability, T/C was 88%.

Q: And the viability, T/C (second compound 0.1 µM, first compound 0.0949 µM)?
A: Its viability, T/C is 41.8%.

Q: What about the viability, T/C (second compound 0.1 µM, first compound 0.3 µM) of the same compound?
A: The viability, T/C was 10.5%.

Q: What about the viability, T/C (second compound 0.1 µM, first compound 0.949 µM) of the same compound?
A: Its viability, T/C is 1.71%.

Q: What about the viability, T/C (second compound 0.1 µM, first compound 3 µM) of the same compound?
A: Its viability, T/C is 0.44%.

Q: And the viability, T/C (second compound 0.316 µM, first compound 0.00949 µM)?
A: Its viability, T/C is 114%.

Q: What about the viability, T/C (second compound 0.316 µM, first compound 0.03 µM) of the same compound?
A: Its viability, T/C is 93.5%.

Q: And the viability, T/C (second compound 0.316 µM, first compound 0.0949 µM)?
A: The viability, T/C was 44.5%.

Q: And the viability, T/C (second compound 0.316 µM, first compound 0.3 µM)?
A: The viability, T/C was 10.6%.

Q: And the viability, T/C (second compound 0.316 µM, first compound 0.949 µM)?
A: Its viability, T/C is 1.43%.

Q: And the viability, T/C (second compound 0.316 µM, first compound 3 µM)?
A: The viability, T/C was 0.17%.

Q: What about the viability, T/C (second compound 1 µM, first compound 0.00949 µM) of the same compound?
A: Its viability, T/C is 126%.

Q: What about the viability, T/C (second compound 1 µM, first compound 0.03 µM) of the same compound?
A: Its viability, T/C is 89.5%.

Q: And the viability, T/C (second compound 1 µM, first compound 0.0949 µM)?
A: The viability, T/C was 48.5%.

Q: What about the viability, T/C (second compound 1 µM, first compound 0.3 µM) of the same compound?
A: The viability, T/C was 9.18%.

Q: What about the viability, T/C (second compound 1 µM, first compound 0.949 µM) of the same compound?
A: Its viability, T/C is 1.34%.

Q: And the viability, T/C (second compound 1 µM, first compound 3 µM)?
A: Its viability, T/C is 0.11%.

Q: What about the viability, T/C (second compound 3.16 µM, first compound 0.00949 µM) of the same compound?
A: Its viability, T/C is 102%.

Q: And the viability, T/C (second compound 3.16 µM, first compound 0.03 µM)?
A: The viability, T/C was 86%.

Q: And the viability, T/C (second compound 3.16 µM, first compound 0.0949 µM)?
A: Its viability, T/C is 42.9%.

Q: And the viability, T/C (second compound 3.16 µM, first compound 0.3 µM)?
A: Its viability, T/C is 8.17%.

Q: And the viability, T/C (second compound 3.16 µM, first compound 0.949 µM)?
A: Its viability, T/C is 0.32%.

Q: What about the viability, T/C (second compound 3.16 µM, first compound 3 µM) of the same compound?
A: Its viability, T/C is 0.12%.

Q: And the viability, T/C (second compound 10 µM, first compound 0.00949 µM)?
A: Its viability, T/C is 114%.

Q: And the viability, T/C (second compound 10 µM, first compound 0.03 µM)?
A: Its viability, T/C is 77.3%.

Q: What about the viability, T/C (second compound 10 µM, first compound 0.0949 µM) of the same compound?
A: The viability, T/C was 29.8%.

Q: And the viability, T/C (second compound 10 µM, first compound 0.3 µM)?
A: Its viability, T/C is 4%.

Q: And the viability, T/C (second compound 10 µM, first compound 0.949 µM)?
A: The viability, T/C was 0.21%.

Q: And the viability, T/C (second compound 10 µM, first compound 3 µM)?
A: Its viability, T/C is 0.19%.

Q: Which results are given for `CC1COCCN1c1cc(-c2ccnn2C)c2ccnc(-c3ccn[nH]3)c2n1` (stereo not given) + NC1CCC(NC2CC2c2ccccc2)CC1?
A: IC50 (second compound 0.1 µM): 43.8 nM; IC50 (second compound 0.316 µM): 48.5 nM; IC50 (second compound 1 µM): 42.6 nM; IC50 (second compound 3.16 µM): 71.1 nM; IC50 (second compound 10 µM): 42.5 nM; viability, T/C [1]: 76.3%; viability, T/C [2]: 71.6%; viability, T/C [3]: 52.8%; viability, T/C [4]: 37.5%; viability, T/C (second compound 0.1 µM, first compound 0.316 µM): 25.5%; viability, T/C (second compound 0.1 µM, first compound 1 µM): 13.5%; viability, T/C [5]: 69.9%; viability, T/C [6]: 79.5%; viability, T/C [7]: 54.6%; viability, T/C [8]: 36.2%; viability, T/C (second compound 0.316 µM, first compound 0.316 µM): 26.2%; viability, T/C (second compound 0.316 µM, first compound 1 µM): 16%; viability, T/C [9]: 99.8%; viability, T/C [10]: 72.4%; viability, T/C [11]: 60.2%; viability, T/C [12]: 34.7%; viability, T/C (second compound 1 µM, first compound 0.316 µM): 21.6%; viability, T/C (second compound 1 µM, first compound 1 µM): 17.6%; viability, T/C [13]: 78.8%; viability, T/C [14]: 85.8%; viability, T/C [15]: 77%; viability, T/C [16]: 38.1%; viability, T/C (second compound 3.16 µM, first compound 0.316 µM): 24.2%; viability, T/C (second compound 3.16 µM, first compound 1 µM): 13.9%; viability, T/C [17]: 82.3%; viability, T/C [18]: 78.9%; viability, T/C [19]: 55.6%; viability, T/C [20]: 30.1%; viability, T/C (second compound 10 µM, first compound 0.316 µM): 21.1%; viability, T/C (second compound 10 µM, first compound 1 µM): 11.5%

Q: For `CC(C)CC(NC(=O)CNC(=O)c1cc(Cl)ccc1Cl)B1OC(=O)CC(CC(=O)O)(C(=O)O)O1` (stereo not given) + NC1CC1c1ccc(-c2cccc(O)c2)cc1, which IC50 (second compound 0.1 µM) is on record?
A: The IC50 was 3.82 nM.

Q: What about the IC50 (second compound 0.316 µM) of the same compound?
A: The IC50 was 3.08 nM.

Q: What about the IC50 (second compound 1 µM) of the same compound?
A: The IC50 was 2.83 nM.

Q: And the IC50 (second compound 3.16 µM)?
A: The IC50 was 3.13 nM.

Q: What about the IC50 (second compound 10 µM) of the same compound?
A: The IC50 was 2.58 nM.

Q: What about the viability, T/C (second compound 0.1 µM, first compound 0.000316 µM) of the same compound?
A: Its viability, T/C is 91.2%.

Q: And the viability, T/C (second compound 0.1 µM, first compound 0.001 µM)?
A: Its viability, T/C is 102%.

Q: And the viability, T/C [1]?
A: Its viability, T/C is 57.3%.

Q: And the viability, T/C [2]?
A: Its viability, T/C is 9.87%.

Q: What about the viability, T/C [3] of the same compound?
A: The viability, T/C was 1.39%.

Q: What about the viability, T/C [4] of the same compound?
A: Its viability, T/C is 0.35%.

Q: What about the viability, T/C (second compound 0.316 µM, first compound 0.000316 µM) of the same compound?
A: Its viability, T/C is 102%.

Q: And the viability, T/C (second compound 0.316 µM, first compound 0.001 µM)?
A: The viability, T/C was 96.5%.

Q: What about the viability, T/C [5] of the same compound?
A: The viability, T/C was 47.9%.

Q: And the viability, T/C [6]?
A: The viability, T/C was 10.8%.

Q: What about the viability, T/C [7] of the same compound?
A: The viability, T/C was 1.68%.

Q: And the viability, T/C [8]?
A: Its viability, T/C is 0.68%.

Q: And the viability, T/C (second compound 1 µM, first compound 0.000316 µM)?
A: Its viability, T/C is 90.9%.

Q: What about the viability, T/C (second compound 1 µM, first compound 0.001 µM) of the same compound?
A: The viability, T/C was 106%.

Q: And the viability, T/C [9]?
A: Its viability, T/C is 44.7%.

Q: And the viability, T/C [10]?
A: The viability, T/C was 8.76%.

Q: What about the viability, T/C [11] of the same compound?
A: Its viability, T/C is 0.48%.

Q: And the viability, T/C [12]?
A: Its viability, T/C is 0.25%.

Q: What about the viability, T/C (second compound 3.16 µM, first compound 0.000316 µM) of the same compound?
A: The viability, T/C was 93.9%.

Q: And the viability, T/C (second compound 3.16 µM, first compound 0.001 µM)?
A: The viability, T/C was 103%.

Q: And the viability, T/C [13]?
A: Its viability, T/C is 49.6%.

Q: What about the viability, T/C [14] of the same compound?
A: Its viability, T/C is 6.24%.

Q: And the viability, T/C [15]?
A: The viability, T/C was 0.66%.

Q: What about the viability, T/C [16] of the same compound?
A: The viability, T/C was 0.21%.

Q: What about the viability, T/C (second compound 10 µM, first compound 0.000316 µM) of the same compound?
A: The viability, T/C was 83.2%.

Q: What about the viability, T/C (second compound 10 µM, first compound 0.001 µM) of the same compound?
A: The viability, T/C was 96.4%.

Q: And the viability, T/C [17]?
A: Its viability, T/C is 41.5%.

Q: And the viability, T/C [18]?
A: Its viability, T/C is 3.08%.

Q: What about the viability, T/C [19] of the same compound?
A: Its viability, T/C is 0.14%.

Q: And the viability, T/C [20]?
A: The viability, T/C was 0.2%.
